Measurements: ChEMBL document CHEMBL3734659, “Identification of tris-(phenylalkyl)amines as new selective h5-HT2Breceptor antagonists” (Medchemcomm, 2015)
The source made the active and inactive calls. No cut-off for these calls is given here.

Legend:
[1] = biological target: 5-hydroxytryptamine receptor 1A (Homo sapiens, UniProt P08908); experiment: Displacement of [3H]Way100635 from human recombinant 5-HT1A receptor stably expressed in CHO cell membrane after 90 mins by scintillation counting method; type: cell membranes
[2] = biological target: T1, 5-hydroxytryptamine receptor 2A (Homo sapiens, UniProt P28223); experiment: Agonist activity at human recombinant 5-HT2A receptor expressed in Flp-In HEK cells preincubated for 10 mins by FLIPR based calcium mobilization assay; type: functional, cell-based; settings: HEK293
[3] = biological target: 5-hydroxytryptamine receptor 2B (Homo sapiens, UniProt P41595); experiment: Agonist activity at human recombinant 5-HT2B receptor expressed in Flp-In HEK cells preincubated for 10 mins by FLIPR based calcium mobilization assay; type: functional, cell-based; settings: HEK293
[4] = biological target: Muscarinic acetylcholine receptor M2 (Homo sapiens) (UniProt P08172); experiment: Displacement of [3H]QNB from human Muscarinic acetylcholine M2 receptor stably expressed in CHO cell after 90 mins by scintillation counting method; type: cell-based
[5] = species on record: Rattus norvegicus; experiment: Displacement of [3H]Muscimol from rat brain Gamma-aminobutyric acid type-A receptor after 90 mins by scintillation counting method
[6] = biological target: D(1A) dopamine receptor (Homo sapiens, UniProt P21728); experiment: Displacement of [3H]SCH23390 from human recombinant dopamine D1 receptor expressed in HEKT cell membrane after 90 mins by scintillation counting method; type: cell membranes
[7] = biological target: Beta-1 adrenergic receptor (Homo sapiens, UniProt P08588); experiment: Displacement of [3H]CGP12177 human recombinant beta 1 adrenergic recptor expressed in CHO Flp-In cells after 90 mins by scintillation counting method; type: cell-based
[8] = biological target: 5-hydroxytryptamine receptor 1D (Homo sapiens, UniProt P28221); experiment: Displacement of [3H]5-CT from human recombinant 5-HT1D receptor expressed in HEKT cell membrane after 90 mins by scintillation counting method; type: cell membranes
[9] = biological target: Muscarinic acetylcholine receptor M4 (Homo sapiens) (UniProt P08173); experiment: Displacement of [3H]NMS from human Muscarinic acetylcholine M4 receptor stably expressed in CHO cell after 90 mins by scintillation counting method; type: cell-based
[10] = biological target: 5-hydroxytryptamine receptor 1B (Homo sapiens) (UniProt P28222); experiment: Displacement of [3H]5-CT from human recombinant 5-HT1B receptor stably expressed in HEK cell membrane after 90 mins by scintillation counting method; type: cell membranes; settings: HEK293
[11] = biological target: Muscarinic acetylcholine receptor M4 (Homo sapiens) (UniProt P08173); experiment: Displacement of [3H]QNB from human Muscarinic acetylcholine M4 receptor stably expressed in CHO cell after 90 mins by scintillation counting method; type: cell-based
[12] = biological target: T1, 5-hydroxytryptamine receptor 2A; experiment: Antagonist activity at human recombinant 5-HT2A receptor expressed in Flp-In HEK cells in the presence of agonist preincubated for 10 mins by FLIPR based calcium mobilization assay; type: functional, cell-based, HEK293
[13] = biological target: T2, 5-hydroxytryptamine receptor 2C (Homo sapiens) (UniProt P28335); experiment: Displacement of [3H]mesulergine from human recombinant 5-HT2C receptor expressed in Flp-IN HEK cell membrane at 10 uM after 90 mins by scintillation counting method; type: cell membranes; settings: HEK293
T2 sequence (whole entry): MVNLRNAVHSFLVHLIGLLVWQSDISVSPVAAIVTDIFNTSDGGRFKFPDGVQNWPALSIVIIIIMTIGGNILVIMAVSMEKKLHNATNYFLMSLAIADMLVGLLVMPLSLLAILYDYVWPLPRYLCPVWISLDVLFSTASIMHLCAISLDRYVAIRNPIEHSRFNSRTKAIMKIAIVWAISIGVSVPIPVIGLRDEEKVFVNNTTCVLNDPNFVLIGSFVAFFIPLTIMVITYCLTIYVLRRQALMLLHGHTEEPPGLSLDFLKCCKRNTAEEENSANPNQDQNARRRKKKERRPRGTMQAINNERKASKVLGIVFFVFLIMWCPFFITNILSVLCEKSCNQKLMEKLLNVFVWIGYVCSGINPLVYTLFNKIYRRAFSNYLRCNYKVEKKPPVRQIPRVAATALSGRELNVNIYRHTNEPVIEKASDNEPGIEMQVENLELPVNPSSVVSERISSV

[14] = biological target: Histamine H3 receptor (Homo sapiens) (UniProt Q9Y5N1); experiment: Displacement of [3H]alpha-methylhistamine from human H3 Histamine receptors expressed in HEK Flp-In cell after 90 mins by scintillation counting method; type: cell-based; settings: HEK293
[15] = biological target: Kappa-type opioid receptor (Homo sapiens, UniProt P41145); experiment: Displacement of [3H]U69593 from human kappa-opioid receptor stably expressed in HEK cell membrane after 90 mins by scintillation counting method; type: cell membranes, HEK293
[16] = biological target: Sodium-dependent dopamine transporter (Homo sapiens, UniProt Q01959); experiment: Displacement of [3H]WIN35428 from human dopamine transporter stably expressed in HEK293 cells after 30 mins by neurotransmitter transporter uptake assay; type: cell-based
[17] = biological target: T1, 5-hydroxytryptamine receptor 2A; experiment: Displacement of [3H]ketanserin from human recombinant 5-HT2A receptor expressed in HEKT cell membrane after 90 mins by scintillation counting method; type: cell-based
[18] = biological target: Beta-3 adrenergic receptor (Homo sapiens) (UniProt P13945); experiment: Displacement of [3H]CGP12177 from human recombinant beta 3 receptor expressed in HEK Flp-In cells after 90 mins by scintillation counting method; type: cell-based; settings: HEK293
[19] = biological target: Muscarinic acetylcholine receptor M5 (Homo sapiens) (UniProt P08912); experiment: Displacement of [3H]NMS from human Muscarinic acetylcholine M5 receptor stably expressed in CHO cell after 90 mins by scintillation counting method; type: cell-based
[20] = biological target: Sodium-dependent noradrenaline transporter (Homo sapiens, UniProt P23975); experiment: Displacement of [3H]Nisoxetine from human norepinephrine transporter stably expressed in HEK293 cells after 30 mins by neurotransmitter transporter uptake assay; type: cell-based
[21] = biological target: T2, 5-hydroxytryptamine receptor 2C (Homo sapiens); experiment: Agonist activity at human recombinant 5-HT2C receptor expressed in Flp-In HEK cells preincubated for 10 mins by FLIPR based calcium mobilization assay; type: functional, cell-based; settings: HEK293
[22] = biological target: 5-hydroxytryptamine receptor 7 (Homo sapiens, UniProt P34969); experiment: Displacement of [3H]LSD from human recombinant 5-HT7A receptor stably expressed in HEKT cell membrane after 90 mins by scintillation counting method; type: cell membranes
[23] = Displacement of [3H]Pentazocine from Guinea pig sigma 1 receptor after 90 mins by scintillation counting method; parameters: species or system Cavia porcellus
[24] = biological target: T1, 5-hydroxytryptamine receptor 2A; experiment: Displacement of [3H]ketanserin from human recombinant 5-HT2A receptor expressed in HEKT cell membrane at 10 uM after 90 mins by scintillation counting method; type: cell membranes
[25] = biological target: Alpha-2C adrenergic receptor (Homo sapiens, UniProt P18825); experiment: Displacement of [3H]Rauwolscine from human recombinant alpha 2C receptor stably expressed in MDCK cells after 90 mins by scintillation counting method; type: cell-based
[26] = biological target: T3, 5-hydroxytryptamine receptor 2C (Homo sapiens, UniProt P28335); experiment: Antagonist activity at human recombinant 5-HT2C receptor expressed in Flp-In HEK cells in the presence of agonist preincubated for 10 mins by FLIPR based calcium mobilization assay; type: functional, cell-based, HEK293
T3 sequence (P28335 whole entry): T2 sequence (whole entry)

[27] = species on record: Rattus norvegicus; experiment: Displacement of [3H]Flunitrazepam from rat brain BZP after 90 mins by scintillation counting method
[28] = biological target: 5-hydroxytryptamine receptor 6 (Homo sapiens) (UniProt P50406); experiment: Displacement of [3H]LSD from human recombinant 5-HT6 receptor stably expressed in HEK cell membrane by scintillation counting method; type: cell membranes; settings: HEK293
[29] = biological target: 5-hydroxytryptamine receptor 1E (Homo sapiens) (UniProt P28566); experiment: Displacement of [3H]5-CT from human recombinant 5-HT1E receptor stably expressed in HEK cell membrane after 90 mins by scintillation counting method; type: cell membranes; settings: HEK293
Chain of 5-hydroxytryptamine receptor 1E (Homo sapiens) (P28566 whole entry): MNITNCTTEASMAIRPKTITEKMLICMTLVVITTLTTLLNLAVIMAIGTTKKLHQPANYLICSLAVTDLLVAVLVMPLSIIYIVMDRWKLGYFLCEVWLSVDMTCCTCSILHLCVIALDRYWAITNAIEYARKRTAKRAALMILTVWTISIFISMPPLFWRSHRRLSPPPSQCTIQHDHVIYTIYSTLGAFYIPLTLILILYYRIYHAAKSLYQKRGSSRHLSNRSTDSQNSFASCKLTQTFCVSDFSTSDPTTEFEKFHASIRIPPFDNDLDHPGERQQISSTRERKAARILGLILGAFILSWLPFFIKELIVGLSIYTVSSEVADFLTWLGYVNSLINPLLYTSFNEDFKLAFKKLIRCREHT

T1 sequence (P28223 whole entry): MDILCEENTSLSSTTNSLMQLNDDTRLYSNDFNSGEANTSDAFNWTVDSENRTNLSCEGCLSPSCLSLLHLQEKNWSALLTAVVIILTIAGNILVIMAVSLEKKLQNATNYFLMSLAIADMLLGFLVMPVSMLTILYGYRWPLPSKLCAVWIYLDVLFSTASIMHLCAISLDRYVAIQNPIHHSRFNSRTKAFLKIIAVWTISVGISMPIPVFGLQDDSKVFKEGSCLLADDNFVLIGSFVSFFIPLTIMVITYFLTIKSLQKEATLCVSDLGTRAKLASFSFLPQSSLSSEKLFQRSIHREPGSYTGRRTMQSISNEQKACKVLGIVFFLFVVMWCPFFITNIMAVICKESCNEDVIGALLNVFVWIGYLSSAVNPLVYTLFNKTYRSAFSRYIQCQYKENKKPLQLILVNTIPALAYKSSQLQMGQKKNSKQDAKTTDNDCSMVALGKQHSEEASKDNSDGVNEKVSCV
Chain of Muscarinic acetylcholine receptor M4 (Homo sapiens) (P08173 whole entry): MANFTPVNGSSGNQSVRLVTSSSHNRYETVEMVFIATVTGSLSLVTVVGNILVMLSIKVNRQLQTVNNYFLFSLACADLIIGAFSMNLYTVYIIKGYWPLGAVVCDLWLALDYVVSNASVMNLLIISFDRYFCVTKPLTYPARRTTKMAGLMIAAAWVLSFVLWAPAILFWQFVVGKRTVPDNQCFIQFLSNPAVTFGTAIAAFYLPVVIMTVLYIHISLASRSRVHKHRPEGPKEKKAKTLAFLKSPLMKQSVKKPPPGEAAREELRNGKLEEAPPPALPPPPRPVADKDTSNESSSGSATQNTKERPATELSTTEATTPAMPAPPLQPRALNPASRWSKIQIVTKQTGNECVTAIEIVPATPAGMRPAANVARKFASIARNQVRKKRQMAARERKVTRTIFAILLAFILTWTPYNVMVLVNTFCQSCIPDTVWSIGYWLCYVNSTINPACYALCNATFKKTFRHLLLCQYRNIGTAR
Chain of 5-hydroxytryptamine receptor 1B (Homo sapiens) (P28222 whole entry): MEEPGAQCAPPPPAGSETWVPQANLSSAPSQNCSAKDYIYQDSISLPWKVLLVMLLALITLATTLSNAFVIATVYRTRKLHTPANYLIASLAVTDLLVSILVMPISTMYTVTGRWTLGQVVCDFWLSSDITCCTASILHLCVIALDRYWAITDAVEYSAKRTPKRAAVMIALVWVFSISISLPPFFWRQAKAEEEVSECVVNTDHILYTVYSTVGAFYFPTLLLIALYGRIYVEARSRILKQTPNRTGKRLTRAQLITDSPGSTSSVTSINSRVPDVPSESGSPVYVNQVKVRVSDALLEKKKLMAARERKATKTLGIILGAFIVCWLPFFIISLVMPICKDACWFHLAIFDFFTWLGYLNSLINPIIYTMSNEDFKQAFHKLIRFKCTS
Chain of D(1A) dopamine receptor (P21728 whole entry): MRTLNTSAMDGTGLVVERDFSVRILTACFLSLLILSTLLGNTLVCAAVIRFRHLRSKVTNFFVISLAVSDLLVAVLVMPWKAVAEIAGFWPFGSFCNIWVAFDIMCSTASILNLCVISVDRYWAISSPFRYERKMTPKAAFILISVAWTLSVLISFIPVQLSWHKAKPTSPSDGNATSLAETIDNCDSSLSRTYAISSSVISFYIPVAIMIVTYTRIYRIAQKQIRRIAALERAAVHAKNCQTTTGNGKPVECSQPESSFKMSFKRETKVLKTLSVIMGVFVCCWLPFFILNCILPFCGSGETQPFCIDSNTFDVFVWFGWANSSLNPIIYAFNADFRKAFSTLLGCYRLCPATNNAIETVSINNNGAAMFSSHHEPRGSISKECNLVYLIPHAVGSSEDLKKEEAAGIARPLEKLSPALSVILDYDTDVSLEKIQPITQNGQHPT
Chain of Beta-1 adrenergic receptor (P08588 whole entry): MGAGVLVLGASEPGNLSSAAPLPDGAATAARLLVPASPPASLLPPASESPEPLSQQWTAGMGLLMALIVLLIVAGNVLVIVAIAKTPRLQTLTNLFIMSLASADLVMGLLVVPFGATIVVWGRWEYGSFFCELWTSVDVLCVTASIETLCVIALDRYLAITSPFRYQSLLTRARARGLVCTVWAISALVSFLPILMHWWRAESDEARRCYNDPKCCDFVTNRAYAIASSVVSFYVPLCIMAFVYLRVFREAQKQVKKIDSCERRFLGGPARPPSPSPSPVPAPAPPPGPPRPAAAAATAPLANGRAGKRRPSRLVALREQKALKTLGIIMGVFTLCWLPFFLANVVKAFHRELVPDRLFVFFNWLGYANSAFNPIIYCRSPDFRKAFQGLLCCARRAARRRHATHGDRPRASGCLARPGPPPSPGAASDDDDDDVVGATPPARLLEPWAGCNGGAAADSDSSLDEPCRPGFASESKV
Chain of 5-hydroxytryptamine receptor 6 (Homo sapiens) (P50406 whole entry): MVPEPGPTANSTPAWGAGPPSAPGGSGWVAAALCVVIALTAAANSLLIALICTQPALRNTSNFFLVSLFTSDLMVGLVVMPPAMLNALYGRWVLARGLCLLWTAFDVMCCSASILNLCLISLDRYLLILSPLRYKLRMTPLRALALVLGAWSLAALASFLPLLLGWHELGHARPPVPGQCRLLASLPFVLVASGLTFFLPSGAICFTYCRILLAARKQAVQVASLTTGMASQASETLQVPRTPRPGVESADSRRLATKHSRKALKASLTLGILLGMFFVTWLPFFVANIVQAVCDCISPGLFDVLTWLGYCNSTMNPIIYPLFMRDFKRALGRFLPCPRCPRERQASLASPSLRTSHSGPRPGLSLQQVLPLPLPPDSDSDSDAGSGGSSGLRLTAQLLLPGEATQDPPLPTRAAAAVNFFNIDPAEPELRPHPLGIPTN
Chain of 5-hydroxytryptamine receptor 2B (P41595 whole entry): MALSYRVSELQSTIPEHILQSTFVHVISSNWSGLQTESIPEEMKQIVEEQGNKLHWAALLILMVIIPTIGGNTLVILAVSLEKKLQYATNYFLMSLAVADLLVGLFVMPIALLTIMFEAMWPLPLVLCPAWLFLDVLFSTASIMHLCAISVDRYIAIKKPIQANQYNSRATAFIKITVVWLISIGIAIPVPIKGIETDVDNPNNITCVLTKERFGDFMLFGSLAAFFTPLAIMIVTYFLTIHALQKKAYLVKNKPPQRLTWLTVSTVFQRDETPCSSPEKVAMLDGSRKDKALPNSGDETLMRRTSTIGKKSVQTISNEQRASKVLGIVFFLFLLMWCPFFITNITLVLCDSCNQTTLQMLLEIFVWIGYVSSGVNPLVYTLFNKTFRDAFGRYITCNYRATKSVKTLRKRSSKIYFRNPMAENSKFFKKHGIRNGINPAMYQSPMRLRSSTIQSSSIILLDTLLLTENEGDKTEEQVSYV
Chain of Muscarinic acetylcholine receptor M5 (Homo sapiens) (P08912 whole entry): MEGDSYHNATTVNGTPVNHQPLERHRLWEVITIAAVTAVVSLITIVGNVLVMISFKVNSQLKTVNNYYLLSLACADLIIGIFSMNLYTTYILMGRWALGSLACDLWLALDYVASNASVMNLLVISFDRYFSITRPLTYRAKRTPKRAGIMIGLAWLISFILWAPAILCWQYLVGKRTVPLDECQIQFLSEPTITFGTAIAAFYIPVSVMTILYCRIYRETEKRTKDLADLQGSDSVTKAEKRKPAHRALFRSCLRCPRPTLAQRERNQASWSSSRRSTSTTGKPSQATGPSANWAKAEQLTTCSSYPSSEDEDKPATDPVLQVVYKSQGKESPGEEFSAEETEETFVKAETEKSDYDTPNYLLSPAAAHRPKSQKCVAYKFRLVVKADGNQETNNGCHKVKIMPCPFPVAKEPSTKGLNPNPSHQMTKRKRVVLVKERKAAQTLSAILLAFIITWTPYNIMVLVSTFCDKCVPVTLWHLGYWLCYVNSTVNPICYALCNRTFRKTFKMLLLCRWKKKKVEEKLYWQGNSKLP
Chain of Kappa-type opioid receptor (P41145 whole entry): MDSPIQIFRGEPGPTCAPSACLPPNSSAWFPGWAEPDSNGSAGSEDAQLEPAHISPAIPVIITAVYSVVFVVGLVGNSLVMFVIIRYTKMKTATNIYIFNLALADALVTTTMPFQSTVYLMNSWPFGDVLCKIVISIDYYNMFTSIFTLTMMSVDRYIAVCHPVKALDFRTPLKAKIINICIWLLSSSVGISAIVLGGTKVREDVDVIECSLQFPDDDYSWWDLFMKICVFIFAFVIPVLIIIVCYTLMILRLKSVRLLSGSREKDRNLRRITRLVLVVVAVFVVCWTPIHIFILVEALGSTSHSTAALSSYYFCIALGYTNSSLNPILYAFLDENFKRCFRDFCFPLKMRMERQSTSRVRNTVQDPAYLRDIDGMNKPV
Chain of 5-hydroxytryptamine receptor 7 (P34969 whole entry): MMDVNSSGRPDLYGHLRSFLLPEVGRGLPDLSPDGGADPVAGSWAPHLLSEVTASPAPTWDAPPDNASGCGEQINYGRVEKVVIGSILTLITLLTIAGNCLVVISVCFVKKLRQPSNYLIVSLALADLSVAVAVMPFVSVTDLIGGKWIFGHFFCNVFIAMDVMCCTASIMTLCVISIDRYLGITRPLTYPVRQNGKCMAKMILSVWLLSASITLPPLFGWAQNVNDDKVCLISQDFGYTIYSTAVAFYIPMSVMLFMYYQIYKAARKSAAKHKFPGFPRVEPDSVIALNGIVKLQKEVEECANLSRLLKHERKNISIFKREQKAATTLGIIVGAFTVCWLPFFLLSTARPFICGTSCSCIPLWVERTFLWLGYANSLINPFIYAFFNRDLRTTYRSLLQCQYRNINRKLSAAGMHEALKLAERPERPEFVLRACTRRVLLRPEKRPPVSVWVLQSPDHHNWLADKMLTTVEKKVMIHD

Ki [1]: 0.821 µM
Activity [2]: inactive
Activity [3]: inactive
Activity [4]: inactive
Activity [5]: inactive
Ki [6]: 1.68 µM
Ki [7]: 1.89 µM
Ki [8]: 0.451 µM
Activity [9]: inactive
Activity [10]: inactive
Activity [11]: inactive
IC50 [12]: 5.01 µM
inhibition [13]: > 50%
Activity [14]: inactive
Ki [15]: 0.363 µM
Ki [16]: 0.498 µM
Ki [17]: 0.165 µM
Activity [18]: inactive
Activity [19]: inactive
Ki [20]: 0.011 µM
Activity [21]: inactive
Ki [22]: 0.7 µM
Ki [23]: 0.176 µM
inhibition [24]: > 50%
Ki [25]: 0.429 µM
IC50 [26]: 12.6 µM
Activity [27]: inactive
Activity [28]: inactive
Activity [29]: inactive
SMILES: COc1ccc(CCN(CCCc2ccccc2)CCc2ccc3c(c2)OCO3)cc1OC
